# Measurements: patent publication US6346514B1, “Pharmaceutical lysine-containing polypeptide compositions and methods of use thereof” (priority 1991, dated 2002)
# How the values were obtained:
# [1] = system: hemolytic anemia induced by phenylhydrazine hydrochloride; assay: Erythropoietic effect in hemolytic phenylhydrazine-induced anemia; assay type: in vivo, mice; conditions: 3rd day of administration
# Description: This test was designed to study posthemorrhagic anemia (acute blood loss caused by taking blood from retroorbital sinus), and hemolytic anemia induced by phenylhydrazine hydrochloride (120 mg active ingredients/kg 30 Balb/c-mice and 30 CBA-mice). HM897 was injected intraperitoneally in doses of 100 and 150 microg per kg, 3 hours and 1 day after intervention modelling anemia, for 5 days. Tester parameters: RBC, leukocytes, reticulocytes, Hb, Hct
# [2] = system: guinea-pig myelokaryocytes; assay: Colony-forming activity of macrophage precursors; assay type: cell-based; conditions: tested 1.0 to 0.0000001 microg/ml
# Description: This test is designed to study macrophage precursors. Cultured cells used were guinea-pig myelokaryocytes. HM897 was added to cell culture in concentrations 1.0, 0.001, 0.00001 and 0.0000001 microg/ml.
substance,measurement,setting,value
Thr-Ala-Glu-Glu-Lys (TAEEK) [HM897],erythrocytes,[1],7.2 mln/ml
same,concentration from which macrophage precursors colony-forming activity is stimulated,[2],≥ 0.0000001 µg/mL
